Results taken from paper PMC5556379 (Journal of medicinal chemistry, 2017).

Tests used:
[1] = molecular target: T1, hCE1 (Homo sapiens, UniProt P23141); conditions: read-out: Ki with hCE1; cited from earlier work
T1 sequence (P23141 18-567): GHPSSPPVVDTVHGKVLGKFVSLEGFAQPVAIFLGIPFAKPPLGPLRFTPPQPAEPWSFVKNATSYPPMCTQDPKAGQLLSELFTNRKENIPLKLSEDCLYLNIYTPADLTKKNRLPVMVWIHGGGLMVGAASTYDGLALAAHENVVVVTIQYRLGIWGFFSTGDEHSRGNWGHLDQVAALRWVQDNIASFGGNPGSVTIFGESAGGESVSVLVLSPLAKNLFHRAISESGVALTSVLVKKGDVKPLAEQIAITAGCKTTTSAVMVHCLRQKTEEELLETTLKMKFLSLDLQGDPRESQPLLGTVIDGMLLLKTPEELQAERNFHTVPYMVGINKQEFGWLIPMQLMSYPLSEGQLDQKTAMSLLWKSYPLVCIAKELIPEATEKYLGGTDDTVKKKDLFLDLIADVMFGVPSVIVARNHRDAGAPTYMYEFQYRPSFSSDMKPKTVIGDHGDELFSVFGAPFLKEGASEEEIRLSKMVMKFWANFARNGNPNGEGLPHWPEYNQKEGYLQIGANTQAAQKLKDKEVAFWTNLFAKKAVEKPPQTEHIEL

[2] = molecular target: T2, hiCE (Homo sapiens, UniProt O00748); format: cell-based; conditions: U373MG cells expressing hiCE; irinotecan as substrate
T2 sequence (O00748 27-559): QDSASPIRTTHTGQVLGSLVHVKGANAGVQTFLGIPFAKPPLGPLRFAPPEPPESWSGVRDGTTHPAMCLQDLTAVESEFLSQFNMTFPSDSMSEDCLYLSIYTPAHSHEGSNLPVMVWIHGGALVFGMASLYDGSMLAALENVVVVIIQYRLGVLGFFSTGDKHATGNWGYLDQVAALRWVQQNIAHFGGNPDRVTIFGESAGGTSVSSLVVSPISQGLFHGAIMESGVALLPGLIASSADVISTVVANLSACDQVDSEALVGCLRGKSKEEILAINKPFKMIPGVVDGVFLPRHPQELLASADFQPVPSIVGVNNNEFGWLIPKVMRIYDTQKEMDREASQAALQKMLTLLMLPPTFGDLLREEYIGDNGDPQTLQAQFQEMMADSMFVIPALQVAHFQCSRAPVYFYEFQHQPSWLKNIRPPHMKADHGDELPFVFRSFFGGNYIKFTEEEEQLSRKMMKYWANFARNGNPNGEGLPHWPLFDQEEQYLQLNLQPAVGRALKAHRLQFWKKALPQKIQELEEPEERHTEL

Row | Compound | Ki [1] [nM] | inhibition of hiCE in cells (loss in 7-ethyl-10-hydroxycamptothecin production) [2]
1 | Cc1cccc2c3c(ccc12)C1=C(C(=O)C3=O)[C@@H](C)CO1 [dihydrotanshinone] | 398 | –
2 | COc1ccc(N(C)C2=CC(=O)C(=O)c3ccccc32)cc1 [Compound 17, 4-((4-Methoxyphenyl)(methyl)amino)naphthalene-1,2-dione] | – | less than 23%
3 | Cc1ccc(N(C)C2=CC(=O)C(=O)c3ccccc32)cc1 [Compound 18, 4-((4-Methylphenyl)(methyl)amino)naphthalene-1,2-dione] | – | less than 23%
